The values that follow come from ChEMBL document CHEMBL5214891, “The subgroup of 2'-hydroxy-flavonoids: Molecular diversity, mechanism of action, and anticancer properties” (Bioorg Med Chem, 2021).

Data set [1] in a line: Downregulation of PSA mRNA expression in human LNCaP cells measured after 12 hrs by RT-PCR assay. The class given is functional, cell-based.
For data set [2], the target named is 11-beta-hydroxysteroid dehydrogenase 1 (Homo sapiens, UniProt P28845). Briefly: Inhibition of human 11beta-HSD1 expressed in HEK-293 cells incubated for 10 mins. The class given is cell-based, HEK293.
Data set [3] is described as follows: Dissociation constant, pKa of compound. It counts as physicochemical.

Chain of 11-beta-hydroxysteroid dehydrogenase 1 (P28845 whole entry): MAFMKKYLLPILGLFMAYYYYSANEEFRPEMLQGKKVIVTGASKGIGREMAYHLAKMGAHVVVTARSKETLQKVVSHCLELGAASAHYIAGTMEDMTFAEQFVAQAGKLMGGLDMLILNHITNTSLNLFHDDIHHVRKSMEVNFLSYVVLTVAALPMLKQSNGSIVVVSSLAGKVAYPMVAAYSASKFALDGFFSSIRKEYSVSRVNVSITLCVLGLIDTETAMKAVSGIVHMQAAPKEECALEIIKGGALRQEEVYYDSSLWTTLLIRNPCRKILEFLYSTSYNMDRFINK

`O=c1c(-c2ccc(O)cc2O)coc2cc(O[C@@H]3O[C@H](CO)[C@@H](O)[C@H](O)[C@H]3O)cc(O)c12`: it took 18 µM to reach half-maximal inhibition in data set [1] (IC50). This lies in the double-digit micromolar range.

For `O=C1CC(c2ccccc2O)Oc2ccccc21` (stereo not drawn) [2'-HYDROXY-FLAVANONE], half-maximal inhibition in data set [2] (IC50) required 10 µM. The pKa (usually the negative logarithm of the acid dissociation constant) in data set [3] came out at 6.67.
